According to ChEMBL document CHEMBL1158331, “Insect Antifeedant Isoryanodane Diterpenes from Persea indica” (1997):

Legend:
Spodoptera litura [1] = assay: Antifeedant activity against Spodoptera litura third instar larvae by choice leaf disk assay; assay type: functional; parameters: unit not given here
Spodoptera litura [2] = assay: Antifeedant activity against Spodoptera litura third instar larvae assessed as feeding index at 1000 ppm by choice leaf disk assay; assay type: functional

| Structure (SMILES) | logEC50 (Spodoptera litura [1]) | Activity (Spodoptera litura [2]) |
| --- | --- | --- |
| C/C=C(\C)C(=O)O[C@H]1C[C@@H](OC(C)=O)[C@@]2(C(=O)OC)CO[C@H]3[C@@H](O)[C@@](C)([C@]45O[C@@]4(C)[C@@H]4C[C@H]5O[C@@H]5OC=C[C@@]54O)[C@H]4[C@]1(CO[C@]4(O)C(=O)OC)[C@@H]32 [AZADIRACHTIN A] | 0.25 |  |
| CC(C)[C@@]1(O)C[C@@]2(O)[C@@]3(C)C[C@]4(O)O[C@@]5([C@H](O)[C@@H](C)CC[C@]35O)[C@@]2(O)[C@@]41C [CINNZEYLANOL] | 1.93 |  |
| CC(C)[C@@H]1C[C@@H]2[C@@]3(O)[C@@H]4O[C@@](O)(C[C@]2(C)[C@]2(O)CC[C@H](C)[C@H]42)[C@]13C [INDICOL] | >3 | 49.39 |
| CC(C)[C@@]1(O)C[C@@]2(O)[C@]3(C)C[C@]4(O)O[C@H]([C@@]5(O)[C@@H](C)CC[C@]53O)[C@@]2(O)[C@]41C [PERSEANOL] | 2.23 | 11.43 |
| CC(C)[C@@]1(O)[C@@H](OC(=O)c2cc[nH]c2)[C@@]2(O)[C@]3(C)C[C@@]4(O)O[C@@]5([C@H](O)[C@@H](C)CC[C@]35O)[C@@]2(O)[C@@]41C [RYANODINE] | 1.15 |  |
| CC(C)[C@@]1(O)[C@@H](O)[C@@]2(O)[C@@]3(C)C[C@]4(O)O[C@@]5([C@H](O)[C@@H](C)CC[C@]35O)[C@@]2(O)[C@]14C [RYANODOL] | 2.18 |  |
| CC(C)[C@@]1(O)C[C@@]2(O)[C@]3(C)C[C@]4(O)O[C@H]([C@H]5[C@@H](C)CC[C@]53O)[C@@]2(O)[C@]41C [VIGNATICOL] | 1.97 | 12.57 |
